US11919896B2, “[1,2,4]triazolo[1,5-a]pyridine compound as JAK inhibitor and use thereof” (Zhuhai United Laboratories Co., Ltd., priority 2018, dated 2024)
Values joined by “and” are separate entries in the source; they are usually repeats but may differ in a detail not shown here. Equal values may be shown once. Read-outs that look alike come from different tables or passages of the source. Marks after values point to notes of the source that are not given here. One block for each compound: values may come before it.

What was measured:
TYK2 = TYK2 (Homo sapiens (Human), UniProt P29597); experiment: In vitro kinase activity test, TYK2(h) enzyme reaction; assay type: biochemical
Sequence of TYK2 (P29597 whole entry): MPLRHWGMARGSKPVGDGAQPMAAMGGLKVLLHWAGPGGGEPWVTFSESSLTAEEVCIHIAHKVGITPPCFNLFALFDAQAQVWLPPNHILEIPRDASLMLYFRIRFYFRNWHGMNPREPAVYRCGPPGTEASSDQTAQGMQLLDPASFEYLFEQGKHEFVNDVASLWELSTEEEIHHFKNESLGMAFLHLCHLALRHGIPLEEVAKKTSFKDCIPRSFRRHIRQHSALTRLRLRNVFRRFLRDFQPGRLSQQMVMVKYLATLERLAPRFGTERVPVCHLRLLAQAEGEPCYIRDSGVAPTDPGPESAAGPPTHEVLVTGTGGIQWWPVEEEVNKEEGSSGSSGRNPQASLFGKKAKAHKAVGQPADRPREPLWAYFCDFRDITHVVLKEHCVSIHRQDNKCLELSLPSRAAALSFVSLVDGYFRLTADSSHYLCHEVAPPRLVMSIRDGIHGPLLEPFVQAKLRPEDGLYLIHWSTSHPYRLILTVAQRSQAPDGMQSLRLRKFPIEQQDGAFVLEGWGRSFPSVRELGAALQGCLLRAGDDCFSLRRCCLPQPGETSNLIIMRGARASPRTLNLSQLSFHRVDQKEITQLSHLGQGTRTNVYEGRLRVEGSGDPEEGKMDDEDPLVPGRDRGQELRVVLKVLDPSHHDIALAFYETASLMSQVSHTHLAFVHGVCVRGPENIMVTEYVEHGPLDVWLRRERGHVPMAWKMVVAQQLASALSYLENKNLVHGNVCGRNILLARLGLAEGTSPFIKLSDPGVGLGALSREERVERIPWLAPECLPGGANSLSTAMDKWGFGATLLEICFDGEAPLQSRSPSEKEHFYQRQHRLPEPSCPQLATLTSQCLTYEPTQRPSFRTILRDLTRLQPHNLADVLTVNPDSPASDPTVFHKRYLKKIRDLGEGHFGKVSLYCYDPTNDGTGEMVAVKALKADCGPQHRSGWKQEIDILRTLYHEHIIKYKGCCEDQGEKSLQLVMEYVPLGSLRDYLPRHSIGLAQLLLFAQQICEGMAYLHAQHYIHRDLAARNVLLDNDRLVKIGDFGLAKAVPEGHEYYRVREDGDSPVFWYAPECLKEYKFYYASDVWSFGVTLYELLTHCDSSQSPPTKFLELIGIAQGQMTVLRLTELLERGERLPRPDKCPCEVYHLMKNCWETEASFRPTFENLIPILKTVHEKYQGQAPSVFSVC

JAK1 = JAK1 (Homo sapiens (Human), UniProt P23458); experiment: In vitro kinase activity test, JAK1(h) enzyme reaction; assay type: biochemical
Sequence of JAK1 (P23458 whole entry): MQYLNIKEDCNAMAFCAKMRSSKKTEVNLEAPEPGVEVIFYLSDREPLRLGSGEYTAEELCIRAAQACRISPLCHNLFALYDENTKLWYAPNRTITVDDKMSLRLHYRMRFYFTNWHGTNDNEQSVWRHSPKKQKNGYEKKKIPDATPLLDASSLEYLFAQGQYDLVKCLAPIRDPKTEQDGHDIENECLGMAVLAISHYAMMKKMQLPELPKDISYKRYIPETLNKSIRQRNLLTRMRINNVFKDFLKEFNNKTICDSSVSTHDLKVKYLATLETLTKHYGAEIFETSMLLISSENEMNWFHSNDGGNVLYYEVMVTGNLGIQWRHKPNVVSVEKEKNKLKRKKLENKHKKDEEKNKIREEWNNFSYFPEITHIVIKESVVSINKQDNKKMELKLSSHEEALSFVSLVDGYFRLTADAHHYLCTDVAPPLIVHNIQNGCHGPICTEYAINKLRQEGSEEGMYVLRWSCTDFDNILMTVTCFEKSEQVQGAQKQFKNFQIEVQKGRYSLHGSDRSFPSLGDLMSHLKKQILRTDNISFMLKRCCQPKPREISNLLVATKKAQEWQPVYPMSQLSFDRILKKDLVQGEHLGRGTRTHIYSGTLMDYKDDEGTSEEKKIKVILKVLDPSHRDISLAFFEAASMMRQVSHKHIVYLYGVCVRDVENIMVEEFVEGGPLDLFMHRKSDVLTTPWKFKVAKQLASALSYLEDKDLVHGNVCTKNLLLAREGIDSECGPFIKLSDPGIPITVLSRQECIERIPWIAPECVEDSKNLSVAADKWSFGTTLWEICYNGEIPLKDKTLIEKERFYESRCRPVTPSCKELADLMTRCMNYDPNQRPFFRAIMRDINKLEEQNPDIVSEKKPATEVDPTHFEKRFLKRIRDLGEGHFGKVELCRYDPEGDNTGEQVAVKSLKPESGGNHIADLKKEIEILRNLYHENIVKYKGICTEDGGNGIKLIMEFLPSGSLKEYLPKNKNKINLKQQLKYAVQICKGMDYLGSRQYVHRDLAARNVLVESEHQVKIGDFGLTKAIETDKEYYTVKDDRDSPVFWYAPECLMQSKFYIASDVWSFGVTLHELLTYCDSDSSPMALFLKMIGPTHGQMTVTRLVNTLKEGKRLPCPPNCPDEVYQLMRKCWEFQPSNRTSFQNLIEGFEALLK

JAK3 = JAK3 (Homo sapiens (Human), UniProt P52333); experiment: In vitro kinase activity test, JAK3(h) enzyme reaction; assay type: biochemical
Sequence of JAK3 (P52333 whole entry): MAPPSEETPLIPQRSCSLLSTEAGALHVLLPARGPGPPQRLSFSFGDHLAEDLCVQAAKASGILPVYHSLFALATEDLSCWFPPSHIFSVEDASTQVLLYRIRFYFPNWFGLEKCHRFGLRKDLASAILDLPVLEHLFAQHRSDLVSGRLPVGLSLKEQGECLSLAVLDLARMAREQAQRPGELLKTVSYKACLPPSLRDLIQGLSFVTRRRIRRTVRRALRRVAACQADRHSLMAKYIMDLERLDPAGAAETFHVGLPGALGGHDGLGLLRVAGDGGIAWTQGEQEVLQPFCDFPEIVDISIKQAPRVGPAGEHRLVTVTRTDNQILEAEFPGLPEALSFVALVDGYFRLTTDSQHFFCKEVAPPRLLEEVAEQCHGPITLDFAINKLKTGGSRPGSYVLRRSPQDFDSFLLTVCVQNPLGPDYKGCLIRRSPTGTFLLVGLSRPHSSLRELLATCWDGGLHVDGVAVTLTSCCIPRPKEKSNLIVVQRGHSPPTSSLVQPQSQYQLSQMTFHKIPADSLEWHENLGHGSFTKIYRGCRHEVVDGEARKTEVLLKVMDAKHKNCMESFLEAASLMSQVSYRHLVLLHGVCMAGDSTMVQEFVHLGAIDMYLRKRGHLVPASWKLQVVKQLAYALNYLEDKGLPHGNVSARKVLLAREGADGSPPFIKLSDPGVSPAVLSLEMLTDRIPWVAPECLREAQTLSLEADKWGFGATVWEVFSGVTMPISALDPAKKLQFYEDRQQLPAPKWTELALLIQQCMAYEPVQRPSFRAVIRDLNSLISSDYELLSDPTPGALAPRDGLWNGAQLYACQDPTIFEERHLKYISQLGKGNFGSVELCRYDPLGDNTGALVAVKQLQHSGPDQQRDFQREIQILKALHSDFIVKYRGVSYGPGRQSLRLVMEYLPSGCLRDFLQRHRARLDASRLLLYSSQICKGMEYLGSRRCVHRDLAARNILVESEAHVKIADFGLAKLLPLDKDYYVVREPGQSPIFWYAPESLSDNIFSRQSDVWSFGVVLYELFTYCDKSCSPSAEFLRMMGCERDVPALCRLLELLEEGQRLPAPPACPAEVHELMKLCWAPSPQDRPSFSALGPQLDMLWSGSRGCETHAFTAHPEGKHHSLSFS

JAK2 = JAK2 (Homo sapiens (Human), UniProt O60674); experiment: In vitro kinase activity test, JAK2(h) enzyme reaction; assay type: biochemical
Sequence of JAK2 (O60674 whole entry): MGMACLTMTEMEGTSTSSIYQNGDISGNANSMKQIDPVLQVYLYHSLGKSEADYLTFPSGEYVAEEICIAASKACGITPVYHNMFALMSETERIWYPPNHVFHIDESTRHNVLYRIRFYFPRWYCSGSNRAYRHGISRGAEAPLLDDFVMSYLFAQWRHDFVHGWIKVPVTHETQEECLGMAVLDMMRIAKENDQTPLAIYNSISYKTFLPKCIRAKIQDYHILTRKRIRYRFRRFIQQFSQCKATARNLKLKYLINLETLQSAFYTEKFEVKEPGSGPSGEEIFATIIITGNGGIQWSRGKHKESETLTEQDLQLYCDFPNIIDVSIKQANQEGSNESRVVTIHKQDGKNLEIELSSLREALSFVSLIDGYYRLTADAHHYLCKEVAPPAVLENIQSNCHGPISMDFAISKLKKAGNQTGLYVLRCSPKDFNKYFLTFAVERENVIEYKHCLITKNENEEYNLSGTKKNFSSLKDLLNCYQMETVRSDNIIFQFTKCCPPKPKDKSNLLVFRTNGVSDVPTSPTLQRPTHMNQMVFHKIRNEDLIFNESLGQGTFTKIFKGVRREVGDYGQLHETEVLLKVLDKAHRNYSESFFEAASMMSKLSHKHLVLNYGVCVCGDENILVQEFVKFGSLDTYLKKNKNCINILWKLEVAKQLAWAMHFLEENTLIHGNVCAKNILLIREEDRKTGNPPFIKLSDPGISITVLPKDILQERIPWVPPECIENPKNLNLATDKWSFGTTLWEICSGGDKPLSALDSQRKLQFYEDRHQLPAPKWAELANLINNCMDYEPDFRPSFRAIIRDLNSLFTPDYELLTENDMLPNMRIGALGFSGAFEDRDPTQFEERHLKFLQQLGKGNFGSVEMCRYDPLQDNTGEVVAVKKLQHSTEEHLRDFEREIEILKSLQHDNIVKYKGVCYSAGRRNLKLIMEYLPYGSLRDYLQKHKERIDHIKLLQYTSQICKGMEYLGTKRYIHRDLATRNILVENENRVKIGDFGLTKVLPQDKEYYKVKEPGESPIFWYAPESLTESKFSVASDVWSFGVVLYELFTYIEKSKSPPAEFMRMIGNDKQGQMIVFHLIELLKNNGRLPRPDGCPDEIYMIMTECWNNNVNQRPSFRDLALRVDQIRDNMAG

[1] = test system: collagen-induced arthritis (CIA) in mice; assay type: in vivo, DBA/1 mice; parameters: key to Average clinical score: score 0-4 per limb, max 16 per animal
Method: Experiment 3: In Vivo Efficacy Study of Collagen-Induced Arthritis (CIA) in Mice
1. Type II Collagen/Complete Freund's Adjuvant Immune
Preparation of acetic acid: 2N acetic acid was diluted to 100 mM, filtered by 0.22 micron filter membrane, and stored at 4° C.
Bovine type 2 collagen (CII) was dissolved in 100 mM acetic acid solution, then stored overnight at 4° C. Final concentration of the collagen is 8 mg/ml.
Preparation of emulsion: the overnight stored CII solution was mixed with equal volume of complete Freund's adjuvant, and homogenized on ice on a high-speed homogenizer at 30,000 revolutions per minute for approximately 60 minutes until the solution forms a stable emulsion.
2. Induction of Arthritis:
Mice were randomly divided into different treatment groups. The day for the first immunization is recorded as day 0, and the subsequent days are marked in order.
DBA/1 mice were anesthetized with isoflurane and injected with […] prepared collagen emulsion (containing […] CII) subcutaneously (2-3 cm from the root of the tail). At day 21, the tail was injected with the same volume of collagen emulsion in the same way. The mice in the normal group was not immunized.
3. Designs of Administration and Dosages
At day 28, when average clinical score is about […] with moderate incidence were selected ad randomly divided into 5 treatment groups based on body weights and scores, with each group having 8 mice.
Dexamethasone (Dex.) was used as a reference drug for measuring whether the model was successfully established, with a dose of 0.3 mg/kg (a commonly used dose in a CIA model). […] They were administered twice a day for a total of 14 days.
4. Measuring of Incidence Index of Arthritis
Clinical observation: from 7 days before immunization to the 21st day after immunization, the basic health status and weight changes of DBA/1 mice was observed daily (recorded once a week). After the 22nd day, the health status, the incidence circumstances, and weight changes of the mice was observed every day (recorded at least three times a week) until the end of the experiment.
Clinical scoring: the incidence of the mice was observed every day after boosting the immune function. After the mice was attacked (showing clinical symptoms of arthritis), the incidence was scored from 0-4 as scoring standard according to different levels of the disease (redness, joint deformation). The highest score for each limb is 4, and the highest score for each animal is 16. The scoring was performed three times a week.
The experimental data is expressed as mean standard error (Mean SEM), and the area under the curve (AUC) is analyzed by one-way ANOVA. P<0.05 is considered to be significant.

[2] = test system: adjuvant-induced arthritis rat model; settings: AIA rats, 30 mg/kg p.o. bid
[3] = CIA mice, 0.3 mg/kg p.o. qd, day 21
[4] = CIA mice, 0.3 mg/kg p.o. qd, day 24
[5] = CIA mice, 0.3 mg/kg p.o. qd, day 27
[6] = CIA mice, 0.3 mg/kg p.o. qd, day 28
[7] = CIA mice, 0.3 mg/kg p.o. qd, day 29
[8] = CIA mice, 0.3 mg/kg p.o. qd, day 31
[9] = CIA mice, 0.3 mg/kg p.o. qd, day 31, listed as Dex
[10] = CIA mice, 0.3 mg/kg p.o. qd, day 34
[11] = CIA mice, 0.3 mg/kg p.o. qd, day 36
[12] = CIA mice, 0.3 mg/kg p.o. qd, day 38
[13] = CIA mice, 0.3 mg/kg p.o. qd, day 41

SMILES: CC(C)(C#N)C(=O)N1CC2(CCC(c3cccc4nc(NC(=O)C5CC5)nn34)CC2)C1 [Compound 1-15]
IC50 (TYK2): 106 nM | IC50 (JAK1): 20 nM | IC50 (JAK3): 9670 nM

IC50 (TYK2): 581 nM | IC50 (JAK1): 114 nM | IC50 (JAK3): > 10000 nM
SMILES: N#CCN1CC2(CCC(c3cccc4nc(NC(=O)C5CC5)nn34)CC2)C1 [Compound 1-16]

IC50 (TYK2): 371 nM | IC50 (JAK1): 65 nM | IC50 (JAK3): > 10000 nM
SMILES: N#CCCN1CC2(CCC(c3cccc4nc(NC(=O)C5CC5)nn34)CC2)C1 [Compound 1-17]

SMILES: N#CCC(=O)N1CC2(CCC(F)(c3cccc4nc(NC(=O)C5CC5)nn34)CC2)C1 [Compound 4-6]
IC50 (TYK2): 307 nM | IC50 (JAK1): 170 nM | IC50 (JAK2): 2010 nM | IC50 (JAK3): 8450 nM

SMILES: O=C(Nc1nc2cccc(C3CCC4(CC3)CCN(C(=O)[C@@H]3CC3(F)F)C4)n2n1)C1CC1 (some centres unmarked) [Compound 5-7]
IC50 (TYK2): 67 nM | IC50 (JAK1): 31 nM | IC50 (JAK2): 324 nM | IC50 (JAK3): 5760 nM

SMILES: O=C(Nc1nc2cccc(C3CCC4(CC3)CCN(C(=O)[C@@H]3CC3(F)F)C4)n2n1)C1CC1 (some centres unmarked) [Compound 5-8]
IC50 (TYK2): 692 nM | IC50 (JAK1): 75 nM | IC50 (JAK2): 789 nM | IC50 (JAK3): 7350 nM

IC50 (TYK2): 829 nM | IC50 (JAK1): 63 nM | IC50 (JAK3): 9390 nM
SMILES: O=C(Nc1nc2cccc([C@H]3CCC4(CCN(C(=O)[C@@H]5CC5(F)F)CC4)C3)n2n1)C1CC1 [Compound 6-7]

IC50 (TYK2): 570 nM | IC50 (JAK1): 381 nM | IC50 (JAK3): > 10000 nM
SMILES: O=C(Nc1nc2cccc([C@@H]3CCC4(CCN(C(=O)[C@@H]5CC5(F)F)CC4)C3)n2n1)C1CC1 [Compound 6-8]

IC50 (TYK2): 830 nM | IC50 (JAK1): 63 nM | IC50 (JAK3): > 10000 nM
SMILES: O=C(Nc1nc2cccc([C@H]3CCC4(C3)CN(C(=O)[C@@H]3CC3(F)F)C4)n2n1)C1CC1 [Compound 7-7]

IC50 (TYK2): 404 nM | IC50 (JAK1): 176 nM | IC50 (JAK3): > 10000 nM
SMILES: O=C(Nc1nc2cccc([C@@H]3CCC4(C3)CN(C(=O)[C@@H]3CC3(F)F)C4)n2n1)C1CC1 [Compound 7-8]

SMILES: O=C(Nc1nc2cccc(C3CCC4(CC3)CN(C(=O)[C@@H]3CC3(F)F)C4)n2n1)[C@H]1CC1(F)F [Compound 8-6]
IC50 (TYK2): 127 nM | IC50 (JAK1): 14 nM | IC50 (JAK2): 110 nM | IC50 (JAK3): 7640 nM

SMILES: N#CCN1CC2(CCC(c3cccc4nc(NC(=O)[C@H]5CC5(F)F)nn34)CC2)C1 [Compound 8-9]
IC50 (TYK2): 1330 nM | IC50 (JAK1): 52 nM | IC50 (JAK2): 3670 nM | IC50 (JAK3): > 10000 nM

SMILES: O=C(Nc1nc2cccc(C3CCC4(CC3)CN(C(=O)[C@@H]3CC3(F)F)C4)n2n1)[C@@H]1CC1(F)F [Compound 9-3]
IC50 (TYK2): 105 nM | IC50 (JAK1): 7 nM | IC50 (JAK2): 292 nM | IC50 (JAK3): > 10000 nM

SMILES: N#CCN1CC2(CCC(c3cccc4nc(NC(=O)[C@@H]5CC5(F)F)nn34)CC2)C1 [Compound 9-6]
IC50 (TYK2): 1390 nM | IC50 (JAK1): 432 nM | IC50 (JAK2): 1170 nM | IC50 (JAK3): > 10000 nM

SMILES: N#CCC(=O)N1CCC2(CCC(c3c(F)ccc4nc(NC(=O)C5CC5)nn34)CC2)CC1 [Compound 10-5]
IC50 (TYK2): 430 nM | IC50 (JAK1): 336 nM | IC50 (JAK2): 812 nM | IC50 (JAK3): 5410 nM

SMILES: C[C@@H]1C[C@H]2[C@@H]3CCC4=CC(=O)C=C[C@]4(C)[C@@]3(F)[C@@H](O)C[C@]2(C)[C@@]1(O)C(=O)CO [Dexamethasone]
Inhibition rate (clinical score AUC vs blank group) ([1]; CIA mice, 0.3 mg/kg p.o. qd): 97.3% | AUC ± SEM of clinical score (AUC of incidence) ([1]; CIA mice, 0.3 mg/kg p.o. qd, administration period): 1.38 ± 0.81 | Average clinical score [1, 3]: 0.00 ± 0.00 | Incidence of arthritis [1, 3]: 0% | Average clinical score [1, 4]: 0.00 ± 0.00 | Incidence of arthritis [1, 4]: 0% | Average clinical score [1, 5]: about 0.3 | Incidence of arthritis [1, 5]: 25% | Average clinical score ([1]; CIA mice, 0.3 mg/kg p.o. qd, day 27, listed as Dex): 0.25 ± 0.16 | Average clinical score [1, 6]: 0.50 ± 0.27 | Incidence of arthritis [1, 6]: 38% | Average clinical score [1, 7]: 0.25 ± 0.16 | Incidence of arthritis [1, 7]: 25% | Average clinical score [1, 8]: 0 | Incidence of arthritis [1, 8]: 0% | Average clinical score [1, 9]: 0.00 ± 0.00 | Incidence of arthritis [1, 9]: 0% | Average clinical score [1, 10]: 0.00 ± 0.00 | Incidence of arthritis [1, 10]: 0% | Average clinical score [1, 11]: 0.00 ± 0.00 | Incidence of arthritis [1, 11]: 0% | Average clinical score [1, 12]: 0.00 ± 0.00 | Incidence of arthritis [1, 12]: 0% | Average clinical score [1, 13]: 0.00 ± 0.00 | Incidence of arthritis [1, 13]: 0% | Inhibition rate (clinical score AUC vs blank group) ([1]; CIA mice, 0.3 mg/kg p.o. qd, listed as Dex): 97.3% | Effect on the weight of mice (comparison between groups) ([1]; mouse, in vivo, po, 0.3 mg/kg): largest weight loss

SMILES: O=C(Nc1nc2cccc(-c3ccc(CN4CCS(=O)(=O)CC4)cc3)n2n1)C1CC1 [Filgotinib]
Inhibition rate of total pathological score [2]: 5% | Clinical scoring, average ([2]; day 13): 6.0 | Feet volume, average ([2]; day 13): 1.9 mL | Clinical scoring, average ([2]; day 15): 6.6 | Feet volume, average ([2]; day 15): 2.2 mL | Clinical scoring, average ([2]; day 17): 6.3 | Feet volume, average ([2]; day 17): 2.0** mL | Clinical scoring, average ([2]; day 20): 5.8** | Feet volume, average ([2]; day 20): 1.9**** mL | Clinical scoring, average ([2]; day 22): 5.5*** | Feet volume, average ([2]; day 22): 2.0**** mL | Clinical scoring, average ([2]; day 24): 5.4**** | Feet volume, average ([2]; day 24): 2.0**** mL | Feet volume, average ([2]; day 27): 1.91 mL and 1.9**** mL | Pathology Scoring: Bone resorption ([2]; day 27, right hind leg): 3.6 ± 0.2 | Pathology Scoring: Pannus formation ([2]; day 27, right hind leg): 3.9 ± 0.1 | Pathology Scoring: Total score ([2]; day 27, right hind leg): 15.2±0.49 and 15.2 ± 0.5 | Pathology Scoring: articular injury ([2]; day 27, right hind leg): 3.7 ± 0.2
